From US10821079B2, “PKC activators and combinations thereof” (Cognitive Research Enterprises, Inc., priority 2011, dated 2020)
Like-named read-outs stand apart in the source and are kept apart here.

Experiments:
PKC [1] = settings: cited from earlier work
[2] = tested on: primary rat hippocampal neurons; experiment: Neuroprotection against ASPD induced toxicity, MTT, primary neurons; type: cell-based; settings: added with DCPLA-ME, 50 nM ASPD
Procedure: Viability of cells was measured by MTT assay. MTT (3-(4,5-Dimethylthiazol-2-yl)-2,5-diphenyltetrazolium bromide) is a tetrazolium salt that is cleaved to formazan by the succinate dehydrogenase, which is only active in viable cells. After solubilization of the formazan, the amount of dye can be quantified with a microplate reader at 570 nm along with a reference of 630 nm. For MTT assay, 5×104 primary rat hippocampal neurons from 18-day-old embryonic Sprague-Dawley rat brains were plated on each well of 24-well plates coated with poly-D-lysine. After treatment, the cells were washed with 1×PBS and were incubated with 200 μl of 1 mg/ml MTT solution (Sigma, USA) at 37° C. for 2 hr. Then the MTT-solution was removed and the cells were lysed with 200 μl isopropanol containing 0.04 M HCl and 160 mM NaOH for 10 min. Finally, the reading was done at 570 nm and 630 nm. All the samples were done in triplicates and the data was represented as the percentage of control.
All studies used 50 nM ASPDs. The viability of the cells were measured by the MTT assay.

PKC-ε [3] = experiment: PKC-ε level in primary neurons (immunofluorescence, Western Blot); type: cell-based, rat; settings: 5 μM inhibitor
Procedure: Cells were harvested in homogenizing buffer containing 10 mM Tris-Cl (pH 7.4), 1 mM PMSF (phenylmethylsulfonyl fluoride), 1 mM EGTA, 1 mM EDTA, 50 mM NaF, and 20 μM leupeptin and were lysed by sonication. The homogenate was centrifuged at 100,000×g for 15 min at 4° C. to obtain the cytosolic fraction (supernatant) and membrane (pellet). The pellet was resuspended in the homogenizing buffer by sonication. Protein concentration was measured using the Coomassie Plus (Bradford) Protein Assay kit (Pierce, USA). Following quantification, 20 μg of protein from each sample was subjected to SDS-PAGE analysis in 4-20% gradient Tris-Glycine gel (Invitrogen, USA). The separated protein was then transferred to nitrocellulose membrane. The membrane was blocked with BSA at room temperature for 15 min and was incubated with primary antibody over night at 4° C. After the incubation, it was washed three times with TBS-T (Tris Buffered saline-Tween 20) and further incubated with alkaline phosphatase conjugated secondary antibody (Jackson Immunoresearch Laboratories, USA) at 1:10,000 dilution for 45 min. The membrane was finally washed three times with TBS-T and developed using the 1-step NBT-BCIP substrate (Pierce, USA). Western Blot was imaged in the ImageQuant RT-ECL (GE Life Sciences, Piscataway, N.J.) and densitometric quantification was performed using the IMAL software (Blanchette Rockefeller Neurosciences Institute, Morgantown, W. Va.). For translocation assays, PKC activation was represented as the percentage of total protein in the membrane (membrane/cytosol+membrane).
Cells were grown in two chambered slides (Nunc, USA) at low density. For immunofluorescence staining, the cells were washed with PBS (pH 7.4) and fixed with 4% paraformaldehyde for 4 min. Following fixation, the cells were blocked and permeabilized with 5% serum and 0.3% Triton X 100 in 1×PBS for 30 min. […] Six individual fields at 63× oil lens magnification were analyzed for the mean fluorescence intensity (MFI) in each channel. […]

PKC [4] = biological target: T1, PKC; settings: cited from earlier work
T1 construct: Ki

protein kinase C = settings: (−)-enantiomer; read-out: EC50 (potency); cited from earlier work
[5] = cited from earlier work
PKC-ε [6] = biological target: T2, PKC-ε (Homo sapiens, UniProt Q02156); experiment: Activation of purified PKC isozymes, radiometric: PKC-ε; type: biochemical
T2 sequence (Q02156 1-737): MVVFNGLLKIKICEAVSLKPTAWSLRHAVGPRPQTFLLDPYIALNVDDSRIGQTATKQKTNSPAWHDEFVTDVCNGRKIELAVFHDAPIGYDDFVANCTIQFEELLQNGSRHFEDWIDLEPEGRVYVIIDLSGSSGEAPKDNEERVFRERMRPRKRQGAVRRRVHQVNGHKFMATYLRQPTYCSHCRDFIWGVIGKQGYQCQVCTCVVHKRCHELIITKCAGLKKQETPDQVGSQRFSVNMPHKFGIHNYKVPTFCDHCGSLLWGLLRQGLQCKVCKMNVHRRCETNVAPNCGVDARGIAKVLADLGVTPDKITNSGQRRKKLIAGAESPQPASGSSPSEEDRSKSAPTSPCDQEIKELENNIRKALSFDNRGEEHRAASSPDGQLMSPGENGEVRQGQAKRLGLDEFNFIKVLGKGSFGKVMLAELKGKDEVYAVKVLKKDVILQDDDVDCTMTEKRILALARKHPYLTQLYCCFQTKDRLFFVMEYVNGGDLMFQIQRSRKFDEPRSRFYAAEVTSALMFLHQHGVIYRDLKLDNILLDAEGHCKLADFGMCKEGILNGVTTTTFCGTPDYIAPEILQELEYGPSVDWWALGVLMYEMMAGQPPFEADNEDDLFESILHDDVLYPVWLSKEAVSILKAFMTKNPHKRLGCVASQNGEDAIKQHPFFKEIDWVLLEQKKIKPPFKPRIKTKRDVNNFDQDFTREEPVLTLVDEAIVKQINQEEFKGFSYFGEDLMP
Procedure: (§1) To measure PKC, 10 μl of cell homogenate or purified PKC isoform was incubated for 15 min at 37° C. in the presence of 10 μM histones, 4.89 mM CaCl2, 1.2 μg/μl phosphatidyl-L-serine, 0.18 μg/μl 1,2-dioctanoyl-sn-glycerol, 10 mM MgCl2, 20 mM HEPES (pH 7.4), 0.8 mM EDTA, 4 mM EGTA, 4% glycerol, 8 μg/ml aprotinin, 8 μg/ml leupeptin, and 2 mM benzamidine. [γ32P]ATP (0.5 μCi) was added and 32P-phosphoprotein formation was measured by adsorption onto phosphocellulose as described previously. See Nelson et al., J. Neurochemistry, 1995, 65: 2350-2357.
(§2) PKC activity of each compound was measured in the absence of diacylglycerol and phosphatidylserine and PKC-δ and PKC-ε were measured in the absence of added EGTA and CaCl2, as described by Kanno et al., J. Lipid Res., 2006, 47: 1146-1156. Low concentrations of Ca^2+ were needed because high Ca^2+ can interact with the PKC phosphatidylserine binding site and prevents activation. […] To determine their PKC isoform specificity, the compounds were pre-incubated with purified isoforms of PKC for five minutes and the PKC activity was measured radiometrically.
(§3) The activation and PKC isozyme specificity of DCPLA-ethyl ester was measured following the procedures in Example 1(B) and (C), except that 9 ng of the purified isozyme was used and it was pre-incubated for 5 minutes at room temperature (FIG. 3). PKC-ε activation by DCPLA-tert-butyl ester and DCPLA-retinyl ester was measured in the same manner as DCPLA-ethyl ester (FIG. 3).
The EC50 values, PKC specificity, and activation for a select number of DCPLA esters was determined (see Table 1). EC50 values were determined by measuring the lowest concentration that activates by 50% of maximum activation. […] The specificity and activation of PKC by the various esters of DCPLA were calculated from the measurements of activation of PKC isozymes.

PKCα [7] = biological target: T3, PKCα (Homo sapiens, UniProt P17252); experiment: Activation of purified PKC isozymes, radiometric: PKC-α; type: biochemical
Procedure: (§4) To measure PKC activity, 10 μg of protein from either cytosol or membrane was incubated for 15 min at 37° C. in the presence of 10 μM histones, 4.89 mM CaCl2, 1.2 μg/μl phosphatidyl-L-serine, 0.18 μg/μl 1,2-dioctanoyl-sn-glycerol, 10 mM MgCl2, 20 mM HEPES (pH 7.4), 0.8 mM EDTA, 4 mM EGTA, 4% glycerol, 8 μg/ml aprotinin, 8 μg/ml leupeptin, 2 mM benzamidine, and 0.5 μCi of [γ-^32P]ATP. [^32P]Phosphoprotein formation was measured by adsorption onto phosphocellulose as described previously. See Nelson et al. (2009) J Biol Chem 284, 34514-34521. For measurements of activation by RA, PKC activity was measured in the absence of diacylglycerol (DAG) and phosphatidylserine, as described by Nelson et al. (2009) J Biol Chem 284, 34514-34521. PKC-δ and PKC-ε were measured in the absence of added EGTA and CaCl^2, as described by Kanno et al. (2006) J Lipid Res 47, 1146-1156. The enzyme was provided as a purified isozyme for in vitro experiments.
as §1, §2, §3

PKC-δ = PKC-δ (Homo sapiens, UniProt Q05655); experiment: Activation of purified PKC isozymes, radiometric: PKC-δ; type: biochemical
Procedure: as §4, §1, §2

NCI 60 cell line screen = settings: cited from earlier work
PKCα [8] = biological target: T3, PKCα; settings: cited from earlier work
PKC [9] = settings: cited from earlier work; remark: listed apart in the source

Chain of PKC-δ (Q05655 whole entry): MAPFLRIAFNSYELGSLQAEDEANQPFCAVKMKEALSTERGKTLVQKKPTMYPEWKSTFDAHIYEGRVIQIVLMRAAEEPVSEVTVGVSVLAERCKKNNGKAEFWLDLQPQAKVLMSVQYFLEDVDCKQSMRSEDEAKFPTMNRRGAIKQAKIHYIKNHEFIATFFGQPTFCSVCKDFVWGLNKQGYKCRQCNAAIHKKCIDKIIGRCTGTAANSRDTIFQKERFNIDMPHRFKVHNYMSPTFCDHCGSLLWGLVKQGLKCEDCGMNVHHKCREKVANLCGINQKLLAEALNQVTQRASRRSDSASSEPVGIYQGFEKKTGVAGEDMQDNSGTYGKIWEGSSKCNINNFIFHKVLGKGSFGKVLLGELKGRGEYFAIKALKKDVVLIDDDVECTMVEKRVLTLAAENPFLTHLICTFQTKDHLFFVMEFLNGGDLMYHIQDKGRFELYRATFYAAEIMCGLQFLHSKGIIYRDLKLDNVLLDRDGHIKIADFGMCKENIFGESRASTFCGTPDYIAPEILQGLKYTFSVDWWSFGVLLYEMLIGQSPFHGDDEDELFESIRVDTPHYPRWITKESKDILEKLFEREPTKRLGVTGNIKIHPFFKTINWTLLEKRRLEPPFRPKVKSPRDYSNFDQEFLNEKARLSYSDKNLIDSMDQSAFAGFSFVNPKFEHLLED

CCCCCCCC(=O)O[C@H]1/C(=C/C(=O)OC)C[C@H]2C[C@H](CO)OC(=O)C[C@H](O)C[C@@H]3CCC[C@H](C[C@@H]4CCO[C@H](/C=C/C(C)(C)[C@]1(O)O2)O4)O3 [Analog 1]
affinity for PKC (in words) (PKC [1]): highest affinity for PKC
Ki (PKC [1]; read-out: PKC Affin): 0.25 nM

EAVSLKPT
effect of inhibitor peptide on neuroprotection by DCPLA-ME [2]: blocked DCPLA-ME's protective effect
effect of inhibitor on PKC-ε protection by DCPLA-ME (PKC-ε [3]): completely blocked

CC1=C[C@]23C(=O)[C@@H](C=C(COC(=O)c4ccccc4)[C@@H](O)[C@]2(O)[C@H]1OC(=O)c1ccccc1)[C@H]1[C@@H](C[C@H]3C)C1(C)C [Ingenol 3,20-dibenzoate]
Ki (PKC [4]): 240 nM

CCCCCCCCc1ccc2c3c(c[nH]c13)C[C@@H](CO)NC(=O)[C@H](C(C)C)N2C [octylindolactam V, Octylindolactam V]
EC50 (protein kinase C): 29 nM

CCC/C=C/C=C/C(=O)O[C@H]1/C(=C/C(=O)OC)C[C@H]2C[C@H]([C@@H](C)O)OC(=O)C[C@H](O)C[C@@H]3C[C@H](OC(C)=O)C(C)(C)[C@](O)(C[C@@H]4C/C(=C/C(=O)OC)C[C@H](/C=C/C(C)(C)[C@]1(O)O2)O4)O3 [Bryostatin-1]
time detectable in the blood ([5]; after a single injection): 14 days
share of initial dose in the blood ([5]; at 100 hrs, intravenous injection): 1%
t1/2 in the blood stream ([5]; blood): 1 h

CCCCCC1CC1CC1CC1CCCCCCCC(=O)OC1CC[C@@]2(C)C(=CC[C@H]3[C@H]4CC[C@H]([C@H](C)CCCC(C)C)[C@@]4(C)CC[C@H]32)C1 (stereo partly shown) [DCPLA-cholesteryl ester]
PKC-ε activation at peak (PKC-ε [6]): up to 130 % of control
concentration of maximal activation (PKC-ε [6]): 10 pM
Specificity ε/α (PKC-ε [6]; Activation of PKC-ε ÷ activation or inhibition of PKCα at 3 × EC50): 0.94
potency relative to Bryostatin-1 (PKC-ε [6]; concentration of maximal activity): 18 ×
effect on PKC-α (in words) (PKCα [7]): inhibited at all concentrations
PKC-δ activation (PKC-δ): up to 130 % of control

CC1=CC[C@H](C)C(C)(C)[C@@H]1/C=C/C(C)=C/CC[C@@]1(CO)[C@H](CCCO)/C(=C(/C)C=O)CC[C@]1(C)O [Iripallidal]
GI50 (concentration required to inhibit growth by 50%) (NCI 60 cell line screen): micromolar to nanomolar range
Ki (PKCα [8]): 75.6 nM

CCC1CC1CC1CC1CC1CC1CC1CC1CC1CC1CC1CC1CCC(=O)O (stereo not shown) [DHA-CP6]
effective concentration (PKC [9]): 10 nM

CCCCCCCC(=O)OC1C(=CC(=O)OC)CC2CC(CO)OC(=O)CC(O)CCOC(CCCc3ccc(Br)cc3)CC3CCOC(C=CC(C)(C)C1(O)O2)O3 (stereo not shown) [bryolog 5]
Ki (PKC [1]; A-ring bryologs, read-out: affinity for PKC): 1.9 nM
